The values below come from US20250228239A1, “MOLECULES HAVING PESTICIDAL UTILITY, AND INTERMEDIATES, COMPOSITIONS, AND PROCESSES, RELATED THERETO” (priority 2024, published 2025).

Read-outs that look alike come from different tables or passages of the source.

Experiment [1] relates to Beet Armyworm (Spodoptera exigua, LAPHEG). As to the kind of experiment: Bioassays on Beet Armyworm (BAW), 128-well diet tray assay. Format: in vivo. To be noted: Spodoptera exigua; for mortality at 50 µg/cm2: 168 h, second instar larvae, 50 μg/cm^2 of test molecule on artificial diet, 25° C., five to seven days, average of eight wells, read-out: BAW % Control (or Mortality) rating. In outline: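 Eight diet wells per compound were treated at 50 μg/cm^2 (acetone-water 90:10), dried, then infested with 1–5 second-instar larvae each. After five to seven days at 25 °C under 14:10 photoperiod, mortality was scored and averaged across wells.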

The test system of experiment [2] is Cabbage Looper (Trichoplusia ni, TRIPNI). In words: Bioassays on Cabbage Looper (CL), 128-well diet tray assay. The class given is in vivo. To be noted: Trichoplusia ni; for mortality at 50 µg/cm2: 168 h, second instar larvae, 50 μg/cm^2 of test molecule on artificial diet, 25° C., five to seven days, average of eight wells, read-out: CL % Control (or Mortality) rating. Put shortly:
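Activity is mean percent mortality over eight wells of second-instar larvae exposed to diet treated at 50 μg/cm^2 for 5–7 days at 25° C.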

The mark [3] stands for this setting: Beet Armyworm, Table ABC / ABC-DP rating, read-out: BAW rating.
Where [4] appears, read: Cabbage Looper, Table ABC / ABC-DP rating, read-out: CL rating.
[5] abbreviates: Beet Armyworm, rating class, read-out: BAW.
Where [6] appears, read: Cabbage Looper, rating class, read-out: CL.
Setting [7] is: Table ABC: Biological Results, species BAW, read-out: BAW.
The mark [8] stands for this setting: Table ABC: Biological Results, species CL, read-out: CL.

Broadly, the mortality is the percentage killed. As for `Cc1cccc(N(C)NC(=O)c2cc(NC(=O)[C@H]3[C@H](c4cc(Cl)cc(Cl)c4)C3(Cl)Cl)ccc2Cl)c1` (relative stereo) [F2574, trans-2,2-Dichloro-N-(4-chloro-3-(2-methyl-2-(m-tolyl)hydrazine-1-carbonyl)phenyl)-3-(3,5-dichlorophenyl)cyclopropane-1-carboxamide], the mortality at 50 µg/cm2 in experiment [1] and in experiment [2] was 50 to 100% throughout. Besides, the pest or weed control at 50 µg/cm2 in experiment [1] (setting [3]) and in experiment [2] (setting [4]) was 50 to 100% throughout.

As to `O=C(NNC(=S)NCC(F)(F)F)c1cc(NC(=O)[C@H]2[C@H](c3cc(Cl)cc(Cl)c3)C2(Cl)Cl)ccc1Cl` (relative stereo) [F2539, trans-2,2-dichloro-N-(4-chloro-3-(2-((2,2,2-trifluoroethyl)carbamothioyl)hydrazine-1-carbonyl)phenyl)-3-(3,5-dichlorophenyl)cyclopropane-1-carboxamide], the pest or weed control at 50 µg/cm2 in experiment [1] (setting [3]) and in experiment [2] (setting [4]) was 50 to 100% each time.

Take `Cc1cc(NC(=O)[C@H]2[C@H](c3cc(Cl)c(Cl)c(Cl)c3)C2(Cl)Cl)cc(C(=O)Nc2cc(NC(=O)C(F)(F)F)c(F)cc2F)c1Cl` [F1499, 2-Chloro-5-((1R,3R)-2,2-dichloro-3-(3,4,5-trichlorophenyl)cyclopropane-1-carboxamido)-N-(2,4-difluoro-5-(2,2,2-trifluoroacetamido)phenyl)-3-methylbenzamide]: the pest or weed control at 50 µg/cm2 in experiment [1] (setting [5]) and in experiment [2] (setting [6]) was 50 to 100% in each case.

As for `COc1c(F)cc(NC(=O)[C@H]2[C@H](c3ccc(F)c(Cl)c3)C2(Cl)Cl)cc1C(=O)Nc1ccc(F)c(N)c1F` (relative stereo) [F1226, trans-N-(3-Amino-2,4-difluorophenyl)-5-(2,2-dichloro-3-(3-chloro-4-fluoro-phenyl)cyclopropane-1-carboxamido)-3-fluoro-2-methoxybenzamide], the pest or weed control at 50 µg/cm2 in experiment [1] (setting [7]) and in experiment [2] (setting [8]) was 50 to 100% each time.

For `Nc1c(F)cc(NC(=O)c2cc(NC(=O)[C@H]3[C@H](c4ccc(Cl)c(Cl)c4)C3(Cl)Cl)ccc2Cl)cc1F` (relative stereo) [DP3, trans-N-(4-Amino-3,5-difluorophenyl)-2-chloro-5-(2,2-dichloro-3-(3,4-dichlorophenyl)cyclopropane-1-carboxamido)benzamide], the mortality at 50 µg/cm2 in experiment [1] and in experiment [2] was 50 to 100% throughout. Moreover, the pest or weed control at 50 µg/cm2 in experiment [1] (setting [3]) and in experiment [2] (setting [4]) was 50 to 100% in each case.

Consider `O=C(Nc1ccc(F)c(NC(=O)C(F)(F)C(F)F)c1F)c1cc(NC(=O)[C@H]2[C@H](c3ccc(F)c(Br)c3)C2(Cl)Cl)ccc1Cl` [F1715, 5-((1R,3R)-3-(3-Bromo-4-fluorophenyl)-2,2-dichlorocyclopropane-1-carboxamido)-2-chloro-N-(2,4-difluoro-3-(2,2,3,3-tetrafluoropropanamido)phenyl)benzamide], for which the pest or weed control at 50 µg/cm2 in experiment [1] (setting [5]) and in experiment [2] (setting [6]) was 50 to 100% each time.

Consider `CC(C(=O)Nc1c(F)ccc(NC(=O)c2cc(NC(=O)[C@H]3[C@H](c4ccc(F)c(C(F)(F)F)c4)C3(Cl)Cl)ccc2Cl)c1F)C(F)(F)F` (stereo partly drawn) [F1832, 2-Chloro-5-((1R,3R)-2,2-dichloro-3-(4-fluoro-3-(trifluoromethyl)phenyl)cyclopropane-1-carboxamido)-N-(2,4-difluoro-3-(3,3,3-trifluoro-2-methylpropanamido)phenyl)benzamide], for which the pest or weed control at 50 µg/cm2 in experiment [1] (setting [3]) and in experiment [2] (setting [4]) was 50 to 100% each time.

For the molecule `O=C(Nc1ccc(F)cc1F)c1cc(NC(=O)[C@H]2[C@H](c3cc(F)cc(Br)c3F)C2(Cl)Cl)ccc1Cl` (relative stereo) [F1093, trans-5-(3-(3-bromo-2,5-difluorophenyl)-2,2-dichlorocyclopropane-1-carboxamido)-2-chloro-N-(2,4-difluorophenyl)benzamide], the pest or weed control at 50 µg/cm2 in experiment [1] (setting [7]) and in experiment [2] (setting [8]) was 50 to 100% in each case.

For `CC(=O)Nc1cc(NC(=O)c2cc(NC(=O)[C@H]3[C@H](c4ccc(Cl)c(Cl)c4)C3(Cl)Cl)cc(F)c2F)c(F)cc1F` [F1585, N-(5-Acetamido-2,4-difluorophenyl)-5-((1R,3R)-2,2-dichloro-3-(3,4-dichlorophenyl)cyclopropane-1-carboxamido)-2,3-difluorobenzamide], the pest or weed control at 50 µg/cm2 in experiment [1] (setting [5]) and in experiment [2] (setting [6]) was 50 to 100% throughout.

Take `Cc1cc(O)ccc1NC(=O)c1cc(NC(=O)[C@H]2[C@H](c3cc(Cl)cc(Cl)c3)C2(Cl)Cl)ccc1Cl` (relative stereo) [F1224, trans-2-chloro-5-(2,2-dichloro-3-(3,5-dichlorophenyl)cyclopropane-1-carboxamido)-N-(4-hydroxy-2-methylphenyl)benzamide]: the pest or weed control at 50 µg/cm2 in experiment [1] (setting [7]) and in experiment [2] (setting [8]) was 50 to 100% throughout.

`C=C(F)c1cc(F)cc(F)c1NC(=O)c1cc(NC(=O)[C@H]2[C@H](c3cc(Cl)cc(Cl)c3)C2(Cl)Cl)ccc1Cl` (relative stereo) [F1322, trans-2-Chloro-5-(2,2-dichloro-3-(3,5-dichlorophenyl)cyclopropane-1-carboxamido)-N-(2,4-difluoro-6-(1-fluorovinyl)phenyl)benzamide]: the pest or weed control at 50 µg/cm2 in experiment [1] (setting [7]) and in experiment [2] (setting [8]) was 50 to 100% throughout.

Take `Cc1cc(NC(=O)[C@H]2[C@H](c3ccc(F)c(C(F)(F)F)c3)C2(Cl)Cl)cc(C(=O)Nc2c(F)ccc(NC(=O)C(F)F)c2F)c1Cl` [F1468, 2-Chloro-5-((1R,3R)-2,2-dichloro-3-(4-fluoro-3-(trifluoromethyl)phenyl)cyclopropane-1-carboxamido)-N-(3-(2,2-difluoroacetamido)-2,6-difluorophenyl)-3-methylbenzamide]: the pest or weed control at 50 µg/cm2 in experiment [1] (setting [5]) and in experiment [2] (setting [6]) was 50 to 100% throughout.

With `O=C(Nc1c(F)cc(F)cc1F)c1cc(NC(=O)[C@H]2[C@H](c3cc(Cl)cc(Cl)c3)C2(Cl)Cl)ccc1Cl` (single isomer, unassigned) [F1377], the pest or weed control at 50 µg/cm2 in experiment [1] (setting [7]) and in experiment [2] (setting [8]) was 50 to 100% throughout.

For the molecule `CC(C)(C)OC(=O)Nc1c(F)ccc(NC(=O)c2cc(NC(=O)[C@H]3[C@H](c4cc(F)cc(Br)c4F)C3(Cl)Cl)ccc2Cl)c1F` (relative stereo) [F1095, trans-tert-Butyl-(3-(5-(3-(3-bromo-2,5-difluorophenyl)-2,2-dichlorocyclopropane-1-carboxamido)-2-chlorobenzamido)-2,6-difluorophenyl)carbamate], the pest or weed control at 50 µg/cm2 in experiment [1] (setting [7]) and in experiment [2] (setting [8]) was 50 to 100% each time.

Consider `O=C(Nc1c(F)ccc(NC(=O)c2cc(NC(=O)[C@H]3[C@H](c4ccc(F)c(C(F)(F)F)c4)C3(Cl)Cl)ccc2Cl)c1F)c1ccccc1` [F1179, N-(3-Benzamido-2,4-difluorophenyl)-2-chloro-5-((1R,3R)-2,2-dichloro-3-(4-fluoro-3-(trifluoromethyl)phenyl)cyclopropane-1-carboxamido)benzamide], for which the pest or weed control at 50 µg/cm2 in experiment [1] (setting [7]) and in experiment [2] (setting [8]) was 50 to 100% in each case.

In the case of `O=C(Nc1ccc(F)c(NC(=O)C(F)(F)F)c1F)c1cc(NC(=O)[C@H]2[C@H](c3ccc(F)c(Cl)c3)C2(Cl)Cl)cc(F)c1Cl` [F1291, 2-Chloro-5-((1R,3R)-2,2-dichloro-3-(3-chloro-4-fluorophenyl)cyclopropane-1-carboxamido)-N-(2,4-difluoro-3-(2,2,2-trifluoroacetamido)phenyl)-3-fluorobenzamide], the pest or weed control at 50 µg/cm2 in experiment [1] (setting [7]) and in experiment [2] (setting [8]) was 50 to 100% each time.

For the molecule `CC(C)(C)OC(=O)N(C(=O)OC(C)(C)C)c1c(F)ccc(NC(=O)c2c(F)ccc(NC(=O)[C@H]3[C@H](c4ccc(F)c(Cl)c4)C3(Cl)Cl)c2F)c1F` (relative stereo) [F1109, trans-tert-Butyl-N-tert-butoxycarbonyl-N-[3-[[3-[[2,2-dichloro-3-(3-chloro-4-fluorophenyl)cyclopropanecarbonyl]amino]-2,6-difluorobenzoyl]amino]-2,6-difluorophenyl]carbamate], the pest or weed control at 50 µg/cm2 in experiment [1] (setting [7]) and in experiment [2] (setting [8]) was 50 to 100% in each case.

On to `Nc1cc(NC(=O)c2cc(NC(=O)[C@H]3[C@H](c4ccc(Cl)c(Cl)c4)C3(Cl)Cl)cc(F)c2Cl)c(F)cc1F` [F1396, N-(5-Amino-2,4-difluorophenyl)-2-chloro-5-((1R,3R)-2,2-dichloro-3-(3,4-dichlorophenyl)cyclopropane-1-carboxamido)-3-fluorobenzamide], for which the pest or weed control at 50 µg/cm2 in experiment [1] (setting [5]) and in experiment [2] (setting [6]) was 50 to 100% in each case.

Turning to `CC(C)(C)OC(=O)N(C(=O)OC(C)(C)C)c1c(F)ccc(NC(=O)c2cc(NC(=O)[C@H]3[C@H](c4cccc(C(F)(F)F)c4)C3(Cl)Cl)ccc2Cl)c1F` [F1665, tert-Butyl N-tert-butoxycarbonyl-N-[3-[[2-chloro-5-[[(1R,3R)-2,2-dichloro-3-[3-(trifluoromethyl)phenyl]cyclopropanecarbonyl]amino]benzoyl]amino]-2,6-difluoro-phenyl]carbamate], the pest or weed control at 50 µg/cm2 in experiment [1] (setting [5]) and in experiment [2] (setting [6]) was 50 to 100% throughout.
